“And” between values parts separate entries of the source, which are not always exact repeats. Identical values can stand only once.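 Assay format: 96-well plates, 48-hour exposure. The concentration for 50% growth inhibition is given as GI50. TGI denotes the concentration required for complete inhibition of growth.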
Legend:
Assay in all cases: NCI anticancer screen, dose series, 48 h
UACC-62 melanoma = system: UACC-62 melanoma
COLO 205 colon = system: COLO 205 colon
OVCAR-4 ovarian = system: OVCAR-4 ovarian
HS 578T breast = system: HS 578T breast
NCI-H522 lung = system: NCI-H522 lung
HT29 colon = system: HT29 colon
NCI/ADR-RES ovarian = system: NCI/ADR-RES ovarian
RXF 393 renal = system: RXF 393 renal
U251 CNS = system: U251 CNS
MALME-3M melanoma = system: MALME-3M melanoma

Compound | GI50 (UACC-62 melanoma) | TGI (UACC-62 melanoma) | GI50 (COLO 205 colon) | TGI (COLO 205 colon) | GI50 (OVCAR-4 ovarian) | TGI (OVCAR-4 ovarian) | GI50 (HS 578T breast) | TGI (HS 578T breast) | GI50 (NCI-H522 lung) | TGI (NCI-H522 lung) | GI50 (HT29 colon) | TGI (HT29 colon) | GI50 (NCI/ADR-RES ovarian) | TGI (NCI/ADR-RES ovarian) | GI50 (RXF 393 renal) | TGI (RXF 393 renal) | GI50 (U251 CNS) | TGI (U251 CNS) | GI50 (MALME-3M melanoma) | TGI (MALME-3M melanoma)
Cc1c(C(=N)C(C#N)C#N)c(=N)oc2c1ccc1ccccc12 | 13 µM | 32.3 µM | 14.9 µM | 29.8 µM | 19.7 µM | > 100 µM | 10.5 µM | 66.2 µM | 8 µM | 25.7 µM | 20.5 µM | 71.1 µM | 25.2 µM | > 100 µM | 2.76 µM | 15.4 µM | 14.5 µM | 37.2 µM | 22.3 µM | 80.7 µM
CCN1C(=S)N(CC)C2C1NC(=S)N2/N=C/C=C/c1ccccc1OC (stereo unspecified) | 0.33 µM | 25.6 µM | 0.312 µM | 1.27 µM | 1.1 µM | > 100 µM | 0.322 µM | > 100 µM | 0.137 µM | 1.19 µM | 0.33 µM | 14.4 µM | 0.237 µM |  | 0.092 µM | 0.498 µM | 0.354 µM | 24.4 µM | 0.736 µM | 63 µM
CC(=O)ON1CCCC(P(=O)(OCOC(=O)C(C)(C)C)OCOC(=O)C(C)(C)C)C1=O (stereo unspecified) | 0.405 µM | 1.74 µM | 0.925 µM | 5.71 µM | 1.19 µM | 13.5 µM | 0.603 µM | 4.4 µM | 0.506 µM | 5.63 µM | 0.305 µM | 3.68 µM | 0.531 µM | 4.21 µM | 0.308 µM | 1.19 µM | 0.458 µM | 5.58 µM | 0.453 µM | 6.63 µM
CC1=C(C(=O)Nc2ccccc2)C(c2ccc(N(C)C)cc2)C(C(=O)Nc2ccccc2)=C(C)N1 |  | 23.9 µM |  | 17.3 µM |  | > 100 µM |  | > 100 µM |  | 81.2 µM |  | > 75.8 µM |  | > 100 µM |  | > 100 µM |  | > 72.4 µM |  | 39.6 µM
Nc1nc2c(c3cnccc13)C(c1ccc(Cl)c(Cl)c1)Cc1cnccc1-2 (stereo unspecified) | 0.352 µM | 2.44 µM | 0.356 µM | 1.09 µM | 4.28 µM | 25.1 µM | 0.818 µM | 22 µM | 0.249 µM | 0.73 µM | 0.37 µM | 3.31 µM | 0.43 µM | 7.69 µM | 0.522 µM | 3.48 µM | 0.375 µM | 2.6 µM | 0.915 µM | 18.6 µM
COc1ccc(OC)c(NCC(=O)n2nc(/C=C\c3ccc(O)c(OC)c3)cc2/C=C\c2ccc(O)c(OC)c2)c1 | 1.56 µM | 4.72 µM | 2.11 µM | 4.27 µM | 3.43 µM | 22.7 µM | 2.31 µM | 19.2 µM | 1.31 µM | 3.28 µM | 1.73 µM | 3.81 µM | 3.5 µM | > 100 µM | 1.51 µM | 3.19 µM | 2.36 µM | 12 µM | 3.01 µM | 14.6 µM
O=C1/C(=C/c2ccc(Cl)c(Cl)c2)CN(C(=O)CCN2CCC(=NO)CC2)C/C1=C\c1ccc(Cl)c(Cl)c1 | 0.664 µM | 1.87 µM | 0.391 µM | 1.54 µM | 0.678 µM | 1.96 µM | 1.43 µM | 5.68 µM | 0.369 µM | 1.59 µM | 0.328 µM | 1.25 µM | 1.02 µM | 4.04 µM | 1.13 µM | 2.59 µM | 0.268 µM | 0.818 µM | 1.32 µM | 2.78 µM
Cc1nn(-c2ccc(Cl)cc2)c2ncnc(N/N=C/c3ccccc3O)c12 | 1.6 µM and 0.91 µM | 19.9 µM and 6.95 µM | 0.776 µM and 0.398 µM | > 46.2 µM and 27.6 µM | 0.436 µM and 0.237 µM | 50.9 µM and 14.2 µM | 4.12 µM and 2.12 µM | > 88.1 µM | 0.874 µM and 0.321 µM | > 69.6 µM | 2.43 µM and 1.62 µM | > 100 µM | 0.372 µM and 0.356 µM | 16.9 µM and 17.4 µM | 1.97 µM and 0.683 µM | 21.7 µM and 11.3 µM | 0.508 µM and 0.37 µM | 16.8 µM and 16.2 µM | 1.19 µM and 0.508 µM | 9.56 µM and 7.85 µM
CCn1cc(C(=O)O)c(=O)c2cc(F)c(N3CCN(S(=O)(=O)c4cccc5ccccc45)CC3)cc21 | 2.25 µM | 7.73 µM | 2.02 µM | 3.91 µM | 2.6 µM | > 100 µM | 2.68 µM | 9.88 µM | 2.78 µM | 8.04 µM | 3.95 µM | > 100 µM | 3.2 µM | > 100 µM | 3.19 µM | 11.8 µM | 3.29 µM | > 100 µM | 2.83 µM | 7.83 µM
CCN(C)c1nc(N(C)CC)c2nc(N(C)CC)nc(N(C)CC)c2n1 |  | > 100 µM |  | > 100 µM |  | > 100 µM |  | > 100 µM |  | > 100 µM |  | > 100 µM |  | > 100 µM |  | > 100 µM |  | > 100 µM |  | > 100 µM
OC1(c2ccc(Cl)c(C(F)(F)F)c2)CCN(CCCC(c2ccc(F)cc2)c2ccc(F)cc2)CC1 | 0.81 µM | 1.5 µM | 0.856 µM | 1.57 µM | 0.804 µM | 1.82 µM | 0.857 µM | 1.93 µM | 0.902 µM | 1.79 µM | 0.739 µM | 1.47 µM | 0.863 µM | 1.77 µM | 0.638 µM | 1.27 µM | 0.784 µM | 1.45 µM | 0.934 µM | 1.74 µM
COc1ccc2c(c1)c(-c1nc(-c3c[nH]c4ncccc34)cs1)cn2CCCN1CCOCC1 | 1.97 µM | 4.32 µM | 1.82 µM | 3.8 µM | 2.14 µM | 8.27 µM | 2.08 µM | 6.92 µM | 2.07 µM | 6.03 µM | 2.22 µM | 6.4 µM | 3.02 µM | 11.3 µM | 2.09 µM | 4.88 µM | 2.25 µM | 5.09 µM | 1.39 µM | 3.14 µM
COC1N(C2CC(O)C(CO)O2)C(=O)NC(=O)C1(F)Br (stereo unspecified) | > 50 µM | > 100 µM | 42.6 µM | 50 µM and > 100 µM | > 59.1 µM | > 100 µM |  | > 95.5 µM | 22.4 µM | 50 µM and > 70 µM | 14.9 µM | 50 µM and > 100 µM |  | > 100 µM | 37.2 µM | 50 µM and > 100 µM |  | 50 µM and > 100 µM | 35.1 µM | 50 µM and > 100 µM
CN[C@@H](C)C(=O)N[C@H]1CN(S(=O)(=O)c2cccc(S(=O)(=O)N3CC[C@H]4CC[C@@H](C(=O)NC(c5ccccc5)c5ccccc5)N4C(=O)[C@@H](NC(=O)[C@H](C)NC)C3)c2)CC[C@H]2CC[C@@H](C(=O)NC(c3ccccc3)c3ccccc3)N2C1=O | 18 µM | 38.9 µM | 15.3 µM | 35.2 µM | 0.0187 µM | 0.128 µM | 18.9 µM | 47.8 µM | 2.43 µM | 34.8 µM | 20.7 µM | > 48.3 µM | > 100 µM | > 100 µM | 0.165 µM | 2.93 µM | 24.4 µM | 63.8 µM | < 0.0104 µM | 0.0452 µM

Reference: PubChem BioAssay (NCI)
